For series [1], the system named is HSPCs from Sphk2 deficient mice. The experiment in a line: DCA treatment of Sphk2 deficient and control mice. The format is in vivo, mouse. Conditions: Sphk2 deficient mice treated for 14 days, vs vehicle treated littermates. The text has this: B6N.129S6-Sphk1tm1Rlp/J (Sphk1Δ/Δ) and B6N.129S6-Sphk2tm1Rlp/J (Sphk2Δ/Δ) mice were obtained from the Jackson Laboratory. To achieve tissue-specific deletion of Sphk2, the Sphk2^flox/flox mice were crossed with Vav-Cre transgenic mice. Sphk2^flox/flox mice was constructed by Cyagen Biosciences Inc. Briefly, linearized targeting vector was electroporated into embryonic stem (ES) cells and positive clones were identified by Southern blotting and injected into C57BL/6 blastocysts followed by chimera production to obtain germline transmission. The Frt-flanked Neo cassette was subsequently removed by mating with Flpe mice. 2-month-old mice or more than 20-month old for aging we used as indicated. 5 FU (Sigma-Aldrich) was injected once or once a week for survival curve as indicated in the tail vein at 150 μg/g body weight. Sphk2 inhibitor ABC294640 (Target Molecule Corp T6750) and PDK inhibitor Sodium dichloroacetate (DCA) (Selleck Chemicals S8615) were intraperitoneal injected at 25 mg/kg. […] Animals were randomly included in the experiments according to genotyping results as a mix of male and female. All animal experiments were performed according to protocols approved by the institutional animal care and use committee.
For phenotype analysis and hematopoietic purification, hematopoietic cells were harvested from bone marrow (femur and tibia). For cell surface phenotyping, a lineage cocktail (Lin, phycoerythrin (PE)-Cy5) was used, including anti-CD3 (145-2C11), anti-CD4 (RM4-5), anti-CD8 (53-6.7), anti-Mac-1 (M1/70), anti-Gr1 (RB6-8C5), anti-B220 (RA3-6B2), anti-IgM (11/41) and anti-TER119 (TER-119) (100 ng antibody cocktail per million bone marrow cells, Biolegend). Monoclonal antibodies to SCA1 (D7, Biolegend), c-KIT (2B8, Biolegend), FLK2 (A2F10, Biolegend), CD34 (RAM34, eBioscience), CD48 (HM48-1, Biolegend), CD41 (MWReg30, eBioscience), CD150 (TC15-12F12.2, BioLegend), CD16/32 (93, Biolegend), IL-7R (A7R34, Biolegend) (all used as 50 ng per million bone marrow cells) were also used where indicated. […]

The test system of the next series is Pdk3. The experiment in a line: Knock-down of Pdk3 in HSCs by siRNA. Format: cell-based, mouse. As for the experimental part:
Bone marrow cells were diluted to the indicated concentration in PBS and were seeded into methylcellulose medium M3434 (StemCell Technologies) for CFU-GM, CFU-GEMM, and BFU-E colony formation assays according to the manufacturer's
The same number of cells from each population to be analyzed were sorted into PBS with 2% FBS. The cells then were washed with PBS and Lysised by RIPA. Equal amounts of protein extracts were fractionated by 12.5% SDS-PAGE and transferred to a PVDF membrane (IPVH00010, Merck Millipore). After blocked with 5% non-fat milk in Tris-buffered saline with Tween-20 (TBST, pH 7.6) for 1 h at room temperature, the membranes were incubated with primary antibodies anti-phospho-PDHE1-A type I (Ser293) (rabbit, 1:1000, ABS204, Merck Millipore), anti-Sphk2 (rabbit, 1:1000, 17096, Proteintech), anti-PDK3 (rabbit, 1:1000, 4970s, Proteintech), or anti-βactin (rabbit, 1:1000, 2118, Cell Signaling Technology), or with primary antibodies anti-PDK3 (rabbit, 1:1000, 12215, Proteintech), anti-β-actin (rabbit, 1:1000, 4970s, Cell Signaling Technology), overnight at 4° C. and then incubated with secondary antibodies (rabbit, 1:10,000, W401B, Promega) for 1 h at room temperature, which was detected by exposure to x-ray film, or by digital imaging with a charge-coupled device camera system (Odyssey Fc). The images shown are representative of images from at least three experiments. […]

The subject of another series is Pdk3 expression in HSPCs. The experiment in a line: Pdk3 mRNA levels and immunoblotting in HSCs treated with inhibitors. Format: cell-based, mouse. As for the experimental part: The same number of cells from each population to be analyzed were sorted into PBS with 2% FBS. The cells then were washed with PBS and Lysised by RIPA. Equal amounts of protein extracts were fractionated by 12.5% SDS-PAGE and transferred to a PVDF membrane (IPVH00010, Merck Millipore). After blocked with 5% non-fat milk in Tris-buffered saline with Tween-20 (TBST, pH 7.6) for 1 h at room temperature, the membranes were incubated with primary antibodies anti-phospho-PDHE1-A type I (Ser293) (rabbit, 1:1000, ABS204, Merck Millipore), anti-Sphk2 (rabbit, 1:1000, 17096, Proteintech), anti-PDK3 (rabbit, 1:1000, 4970s, Proteintech), or anti-βactin (rabbit, 1:1000, 2118, Cell Signaling Technology), or with primary antibodies anti-PDK3 (rabbit, 1:1000, 12215, Proteintech), anti-β-actin (rabbit, 1:1000, 4970s, Cell Signaling Technology), overnight at 4° C. and then incubated with secondary antibodies (rabbit, 1:10,000, W401B, Promega) for 1 h at room temperature, which was detected by exposure to x-ray film, or by digital imaging with a charge-coupled device camera system (Odyssey Fc). The images shown are representative of images from at least three experiments.
(In general: A western blot detects proteins with antibodies after separation by electrophoresis.)

On to `O=C([O-])C(Cl)Cl.[Na+]` [DCA, Sodium dichloroacetate], for which the HSPC numbers entry in series [1] (25 mg/kg intraperitoneal) is given as “reduced HSPC numbers”. In series [1], the HSC quiescence entry is “compromised HSC quiescence” and the “ROS levels in HSPCs” value is given as “increased ROS levels”.

As to “siRNA: siRNAs (GGACCTGCATCATGAACAATG, SEQ ID NO. 1) against mouse Pdk3 cloned into lentivirus pLKO.1-puro vector”, in the series on Pdk3 (Sphk2 deficient HSCs), the “HSPC activity (myeloerythroid-colony-forming progenitors)” value is “compromised”. The PDH-E1α phosphorylation result in the series on Pdk3 (control and Sphk2 deficient HSCs, immunoblotting) was “reduced”.

On to `CCCCCCCCc1ccc(CCC(N)(CO)CO)cc1` [FTY720], for which the “Pdk3 expression in HSPCs” value with Pdk3 expression in HSPCs was “not”.

The record behind these values is patent US12622898B2, “Methods and compositions for improving bone marrow hematopoietic functions” (SUN YAT-SEN UNIVERSITY, priority 2019, dated 2026).
